{"source": "patent US9403800B2", "about": "“Compounds for inhibition of cancer cell proliferation” (ChemRegen, Inc., priority 2012, dated 2016)", "key": {"[1]": {"system": "Wnt transcriptional activity", "experiment": "cell-based Wnt-luciferase reporter assay (SuperTOPFlash)", "conditions": "for inhibition of Wnt transcriptional activity (in words): Wnt-luciferase reporter; for Relative potency for Wnt inhibition: relative to IWR-1, transfected HEK293A cells treated 12 hours, normalized to Renilla", "description": "“Hit” 1 (FIG. 1) was identified as a Wnt inhibitor in a high-throughput screen of a library of 74,000 compounds using a cell-based Wnt-luciferase reporter assay as a readout of Wnt transcriptional activity. […] Wnt transcriptional activity was monitored in HEK-293T cells using a luciferase-based Wnt reporter (SuperTOPFlash) stimulated by Wnt3a conditioned media.\nMedicinal chemical refinement of “hit” 1 was undertaken to improve its potency, maintain non-toxicity, increase water solubility and improve bioavailability. The SAR refinement of functional activity of “hit” 1 on the inhibition of the Wnt pathway was determined using a cell-based Wnt-luciferase reporter assay (described above). with Renilla Luciferase was used as a normalization for transfection efficiency. 6-8 hours after transfection, transfected HEK293A cells were treated with 1 and each analog for 12 hours. Both firefly and renilla luciferase activities were measured using a plate reader. A library of compounds was tested to obtain an SAR for 1. Compound 1 and its analogs are synthesized by a two step synthesis, Scheme 1.\nSignaling was tested using a standard luciferase response system for canonical Wnt/β-catenin/TCF signaling. Briefly, we used a cell line that had been transfected with a luciferase reporter gene under the control of the response element of a transcription factor that is activated by association with β-catenin and is the target of canonical Wnt signaling."}, "[2]": {"experiment": "chemical stability by HPLC", "type": "physicochemical", "conditions": "determined by HPLC", "description": "As observed from the data presented in Table 1, both free bases and salts gave significant Wnt inhibition potency. On the basis of the lipophilic character of many of the analogs, it is likely interaction site on the molecular target has a lipophilic character although polar interactions are apparent. To increase solubility, were possible, hydrochloride salts of the sulfonamides were synthesized. To afford appropriate bioavailability, sulfonamides were synthesized with chemical and metabolic stability in mind."}, "pharmacokinetics in rats": {"experiment": "pharmacokinetics in rats", "conditions": "rat, in vivo"}, "[3]": {"system": "canonical Wnt target genes, Cyclin D1 (CCND1), Axin2 (AXIN2), and c-Myc (c-MYC)", "experiment": "mRNA levels of canonical Wnt target genes in HEK293T and SW480 cells", "type": "cell-based", "conditions": "HEK293T and SW480 colorectal cells"}, "[4]": {"system": "SW480 colorectal cancer model cell line", "experiment": "SW480 cell proliferation and cell cycle (InCell 1000)", "type": "cell-based, human", "description": "Previous studies have shown that the Wnt signaling pathway drives cellular proliferation of a number of cancers through up-regulation of genes for several proteins crucial for cell division including Cyclin D1, c-Myc, etc. and treatment of cancer cells with 1 or analogs decreases cellular proliferation. Accordingly, we examined the effect of 1 and analogs on cell proliferation of human cancer cell lines. […] The results were confirmed by studying the effects of 1 on SW480 human colon cell cycle determined by cell images captured by InCell 1000."}}, "data": [{"smiles": "O=C1CCCN1c1ccc(S(=O)(=O)N2CCCC3CCCCC32)cc1", "note": "(stereo not shown) [Compound 3, 1-(4-(octahydroquinolin-1(2H)-ylsulfonyl)phenyl)pyrrolidin-2-one]", "values": [{"measurement": "inhibition of Wnt transcriptional activity (in words)", "setting": "[1]", "result": "potent inhibition of Wnt"}]}, {"smiles": "O=C1CCCN1c1ccc(S(=O)(=O)N2CCCc3cc(Cl)ccc32)cc1", "note": "[Compound 5, 1-(4-(6-chloro-3,4-dihydroquinolin-1(2H)-ylsulfonyl)phenyl)pyrrolidin-2-one]", "values": [{"measurement": "Relative potency for Wnt inhibition", "setting": "[1]", "result": "++++ (between 60 to 80% potency compared to IWR-1)"}]}, {"smiles": "O=C1CCCN1c1ccc(S(=O)(=O)N2CCCc3cc(F)ccc32)cc1", "note": "[Compound 6, 1-(4-(6-fluoro-3,4-dihydroquinolin-1(2H)-ylsulfonyl)phenyl)pyrrolidin-2-one]", "values": [{"measurement": "chemical half life", "setting": "[2]", "result": "No change"}, {"measurement": "Relative potency for Wnt inhibition", "setting": "[1]", "result": "+++ (between 40 to 60% potency compared to IWR-1)"}]}, {"smiles": "COc1ccc2c(c1)CCCN2S(=O)(=O)c1ccc(N2CCCC2=O)cc1", "note": "[Compound 7, 1-(4-(6-methoxy-3,4-dihydroquinolin-1(2H)-ylsulfonyl)phenyl)pyrrolidin-2-one]", "values": [{"measurement": "half-life", "setting": "[2]", "result": 37, "unit": "h"}, {"measurement": "Relative potency for Wnt inhibition", "setting": "[1]", "result": "++++ (between 60 to 80% potency compared to IWR-1)"}]}, {"smiles": "O=C1CCCN1c1ccc(S(=O)(=O)N2CCCc3cc(C(F)(F)F)ccc32)cc1", "note": "[Compound 8, 1-(4-(6-(trifluoromethyl)-3,4-dihydroquinolin-1(2H)-ylsulfonyl)phenyl)-pyrrolidin-2-one]", "values": [{"measurement": "Relative potency for Wnt inhibition", "setting": "[1]", "result": "+++ (between 40 to 60% potency compared to IWR-1)"}]}, {"smiles": "CC(C)(C)c1ccc2c(c1)CCCN2S(=O)(=O)c1ccc(N2CCCC2=O)cc1", "note": "[Compound 9, 1-(4-(6-tert-butyl-3,4-dihydroquinolin-1(2H)-ylsulfonyl)phenyl)pyrrolidin-2-one]", "values": [{"measurement": "Relative potency for Wnt inhibition", "setting": "[1]", "result": "+ (<20% potency compared to compound IWR-1)"}]}, {"smiles": "Cc1ccc2c(c1)N(S(=O)(=O)c1ccc(N3CCCC3=O)cc1)CCC2", "note": "[Compound 11, 1-(4-(7-methyl-3,4-dihydroquinolin-1(2H)-ylsulfonyl)phenyl)pyrrolidin-2-one]", "values": [{"measurement": "Relative potency for Wnt inhibition", "setting": "[1]", "result": "++++ (between 60 to 80% potency compared to IWR-1)"}]}, {"smiles": "O=C1CCCN1c1ccc(S(=O)(=O)N2CCc3ccccc3C2)cc1", "note": "[Compound 12, 1-(4-(3,4-dihydroisoquinolin-2(1H)-ylsulfonyl)phenyl)pyrrolidin-2-one]", "values": [{"measurement": "Relative potency for Wnt inhibition", "setting": "[1]", "result": "++++ (between 60 to 80% potency compared to IWR-1)"}]}, {"smiles": "Cc1ccc2c(c1)CCN(S(=O)(=O)c1ccc(N3CCCC3=O)cc1)C2", "note": "[Compound 13, 1-(4-(6-methyl-3,4-dihydroisoquinolin-2(1H)-ylsulfonyl)phenyl)pyrrolidin-2-one]", "values": [{"measurement": "Relative potency for Wnt inhibition", "setting": "[1]", "result": "+ (<20% potency compared to compound IWR-1)"}]}, {"smiles": "Cc1ccc2c(c1)CN(S(=O)(=O)c1ccc(N3CCCC3=O)cc1)CC2", "note": "[Compound 14, 1-(4-(7-methyl-3,4-dihydroisoquinolin-2(1H)-ylsulfonyl)phenyl)pyrrolidin-2-one]", "values": [{"measurement": "Relative potency for Wnt inhibition", "setting": "[1]", "result": "+++ (between 40 to 60% potency compared to IWR-1)"}]}, {"smiles": "O=C1CCCN1c1ccc(S(=O)(=O)Nc2ccccc2)cc1", "note": "[Compound 17, 4-(2-oxopyrrolidin-1-yl)-N-phenylbenzenesulfonamide]", "values": [{"measurement": "Relative potency for Wnt inhibition", "setting": "[1]", "result": "+ (<20% potency compared to compound IWR-1)"}]}, {"smiles": "COc1ccccc1NS(=O)(=O)c1ccc(N2CCCC2=O)cc1", "note": "[Compound 18, N-(2-methoxyphenyl)-4-(2-oxopyrrolidin-1-yl)benzenesulfonamide]", "values": [{"measurement": "Relative potency for Wnt inhibition", "setting": "[1]", "result": "+ (<20% potency compared to compound IWR-1)"}]}, {"smiles": "O=C1CCCN1c1ccc(S(=O)(=O)Nc2ccccc2OC(F)(F)F)cc1", "note": "[Compound 19, 4-(2-oxopyrrolidin-1-yl)-N-(2-(trifluoromethoxy)phenyl)benzenesulfonamide]", "values": [{"measurement": "Relative potency for Wnt inhibition", "setting": "[1]", "result": "+ (<20% potency compared to compound IWR-1)"}]}, {"smiles": "O=C1CCCN1c1ccc(S(=O)(=O)Nc2cccc3ccccc23)cc1", "note": "[Compound 20, N-(naphthalen-1-yl)-4-(2-oxopyrrolidin-1-yl)benzenesulfonamide]", "values": [{"measurement": "Relative potency for Wnt inhibition", "setting": "[1]", "result": "+ (<20% potency compared to compound IWR-1)"}]}, {"smiles": "O=C1CCCN1c1ccc(S(=O)(=O)N2CCCCC2)cc1", "note": "[Compound 21, 1-(4-(piperidin-1-ylsulfonyl)phenyl)pyrrolidin-2-one]", "values": [{"measurement": "Relative potency for Wnt inhibition", "setting": "[1]", "result": "+ (<20% potency compared to compound IWR-1)"}]}, {"smiles": "CCC1CCCCN1S(=O)(=O)c1ccc(N2CCCC2=O)cc1", "note": "(stereo not shown) [Compound 22, 1-(4-(2-ethylpiperidin-1-ylsulfonyl)phenyl)pyrrolidin-2-one]", "values": [{"measurement": "Relative potency for Wnt inhibition", "setting": "[1]", "result": "+ (<20% potency compared to compound IWR-1)"}]}, {"smiles": "CCCN(c1ccccc1)S(=O)(=O)c1ccc(N2CCCC2=O)cc1", "note": "[Compound 23, 4-(2-oxopyrrolidin-1-yl)-N-phenyl-N-propylbenzenesulfonamide]", "values": [{"measurement": "Relative potency for Wnt inhibition", "setting": "[1]", "result": "+ (<20% potency compared to compound IWR-1)"}]}, {"smiles": "CCCCN(c1ccccc1)S(=O)(=O)c1ccc(N2CCCC2=O)cc1", "note": "[Compound 24, N-butyl-4-(2-oxopyrrolidin-1-yl)-N-phenylbenzenesulfonamide]", "values": [{"measurement": "Relative potency for Wnt inhibition", "setting": "[1]", "result": "+ (<20% potency compared to compound IWR-1)"}]}, {"smiles": "O=C1CCCCN1c1ccc(S(=O)(=O)N2CCCc3ccccc32)cc1", "note": "[Compound 25, 1-(4-(3,4-dihydroquinolin-1(2H)-ylsulfonyl)phenyl)piperidin-2-one]", "values": [{"measurement": "inhibition of Wnt transcriptional activity (in words)", "setting": "[1]", "result": "did not inhibit Wnt transcriptional activity"}, {"measurement": "Relative potency for Wnt inhibition", "setting": "[1]", "result": "+ (<20% potency compared to compound IWR-1)"}]}, {"smiles": "CC(=O)N(C)c1ccc(S(=O)(=O)N2CCCc3ccccc32)cc1", "note": "[Compound 26, N-(4-(3,4-dihydroquinolin-1(2H)-ylsulfonyl)phenyl)-N-methylacetamide]", "values": [{"measurement": "Relative potency for Wnt inhibition", "setting": "[1]", "result": "+ (<20% potency compared to compound IWR-1)"}]}, {"smiles": "COC1CCN(c2ccc(S(=O)(=O)N3CCN(C)c4ccccc43)cc2)C1=O", "note": "(stereo not shown) [Compound 27, 3-methoxy-1-(4-(4-methyl-3,4-dihydroquinoxalin-1(2H)-ylsulfonyl)phenyl)-pyrrolidin-2-one]", "values": [{"measurement": "Relative potency for Wnt inhibition", "setting": "[1]", "result": "+ (<20% potency compared to compound IWR-1)"}]}, {"smiles": "CN1CCN(S(=O)(=O)c2ccc(N3CCC(O)C3=O)cc2)c2ccccc21", "note": "(stereo not shown) [Compound 28, 3-hydroxy-1-(4-(4-methyl-3,4-dihydroquinoxalin-1(2H)-ylsulfonyl)phenyl)-pyrrolidin-2-one]", "values": [{"measurement": "Relative potency for Wnt inhibition", "setting": "[1]", "result": "+++ (between 40 to 60% potency compared to IWR-1)"}]}, {"smiles": "CN1CCN(S(=O)(=O)c2ccc(N3CCCC3)cc2)c2ccccc21", "note": "[Compound 31, 1-methyl-4-(4-(pyrrolidin-1-yl)phenylsulfonyl)-1,2,3,4-tetrahydroquinoxaline]", "values": [{"measurement": "bioavailability", "setting": "pharmacokinetics in rats", "result": 11, "unit": "%"}, {"measurement": "Relative potency for Wnt inhibition", "setting": "[1]", "result": "++++ (between 60 to 80% potency compared to IWR-1)"}]}, {"smiles": "CN1CCN(S(=O)(=O)c2ccc(N3CCC=N3)cc2)c2ccccc21", "note": "[Compound 32, 1-(4-(4,5-dihydro-1H-pyrazol-1-yl)phenylsulfonyl)-4-methyl-1,2,3,4-tetrahydroquinoxaline]", "values": [{"measurement": "Relative potency for Wnt inhibition", "setting": "[1]", "result": "++++ (between 60 to 80% potency compared to IWR-1)"}]}, {"smiles": "CN1CCN(S(=O)(=O)c2ccc(-n3cccn3)cc2)c2ccccc21", "note": "[Compound 33, 1-(4-(1H-pyrazol-1-yl)phenylsulfonyl)-4-methyl-1,2,3,4-tetrahydroquinoxaline]", "values": [{"measurement": "Relative potency for Wnt inhibition", "setting": "[1]", "result": "+ (<20% potency compared to compound IWR-1)"}]}, {"smiles": "CN1CCN(S(=O)(=O)c2ccc(N3CCC(O)C3)cc2)c2ccccc21", "note": "(stereo not shown) [Compound 34, 1-(4-(4-methyl-3,4-dihydroquinoxalin-1(2H)-ylsulfonyl)phenyl)pyrrolidin-3-ol]", "values": [{"measurement": "Relative potency for Wnt inhibition", "setting": "[1]", "result": "+++ (between 40 to 60% potency compared to IWR-1)"}]}, {"smiles": "CC(=O)c1ccc(NN=C(C(N)=O)C2=NC(C)(C)Cc3ccccc32)cc1", "note": "[IQ-1]", "values": [{"measurement": "mRNA levels of canonical Wnt target genes CCND1, AXIN2, c-MYC", "setting": "[3]", "result": "enhanced mRNA expression"}]}, {"smiles": "O=C(Nc1cccc2cccnc12)c1ccc(N2C(=O)[C@@H]3[C@H](C2=O)[C@@H]2C=C[C@H]3C2)cc1", "note": "[IWR-1, reference compound]", "values": [{"measurement": "cell cycle distribution", "setting": "[4]; SW480 cells, InCell 1000 images", "result": "did not alter either the rate of SW480 cell proliferation or cell cycle"}, {"measurement": "cancer cell proliferation (in words)", "setting": "[4]; SW480 colon cancer cell line", "result": "did not alter either the rate of SW480 cell proliferation or cell cycle"}, {"measurement": "mRNA levels of canonical Wnt target genes CCND1, AXIN2, c-MYC", "setting": "[3]", "result": "decreased mRNA expression"}]}]}
